Experimental data reported in US7915284B2, “2-aryl-6-phenylimidazo[1,2-a]pyridine derivatives, preparation thereof and therapeutic use thereof” (Sanofi-Aventis, priority 2006, dated 2011).

Target: T1, mouse Nurr1 receptor (Mus musculus, UniProt Q06219)
T1 construct: endogenously expressing the mouse Nurr1 receptor; host or cells: Neuro-2A (N2A) mouse neuroblastoma cells stably transfected with 8NBRE-luciferase
Test: In vitro activity on N2A cells (NBRE-luciferase reporter)
Format: cell-based
Details: N2A cell line endogenously expressing mouse Nurr1, stably transfected with 8NBRE-luciferase; 24 hours incubation
Method: Evaluation of the In Vitro Activity on N2A Cells
Assays consisted in measuring the in vitro activity of the compounds of the invention on a cell line (N2A) endogenously expressing the mouse Nurr1 receptor and stably transfected with the NOT binding response element (NBRE) coupled to the luciferase reporter gene. The EC50 values are between 0.01 and 1000 nM. The assays were carried out according to the procedure described below.
The Neuro-2A cell line comes from a standard commercial source (ATCC). The Neuro-2A clone was obtained from a spontaneous tumour originating from an A albino mouse strain, by R. J Klebe et col. This Neuro-2A line is subsequently stably transfected with 8NBRE-luciferase. The N2A-8NBRE cells are cultured until confluence in 75 cm^2 culture flasks containing DMEM supplemented with 10% of foetal calf serum, 4.5 g/l of glucose and 0.4 mg/ml of geneticin. After a week of culture, the cells are recovered with 0.25% trypsin for 30 seconds and then resuspended in DMEM without phenol red, containing 4.5 g/l of glucose and 10% of Hyclone delipidized serum, and deposited into transparent-bottom 96-well white plates. The cells are deposited at a rate of 60 000 per well in 75 μl for 24 hours before the addition of the products. The products are applied in 25 μl and incubated for a further 24 hours. On the day of the measurement, an equivalent volume (100 μl) of Steadylite are added to each well and then left for a period of 30 minutes in order to obtain complete cell lysis and maximum signal production. The plates are subsequently measured in a luminescence counter for microplates after having been sealed with an adhesive film. The products are prepared in the form of a stock solution at 10^−2M and then diluted in 100% of DMSO. Each product concentration is prediluted in culture medium before incubation with the cells, thus containing 0.625% final concentration of DMSO.

T1 sequence (Q06219 whole entry): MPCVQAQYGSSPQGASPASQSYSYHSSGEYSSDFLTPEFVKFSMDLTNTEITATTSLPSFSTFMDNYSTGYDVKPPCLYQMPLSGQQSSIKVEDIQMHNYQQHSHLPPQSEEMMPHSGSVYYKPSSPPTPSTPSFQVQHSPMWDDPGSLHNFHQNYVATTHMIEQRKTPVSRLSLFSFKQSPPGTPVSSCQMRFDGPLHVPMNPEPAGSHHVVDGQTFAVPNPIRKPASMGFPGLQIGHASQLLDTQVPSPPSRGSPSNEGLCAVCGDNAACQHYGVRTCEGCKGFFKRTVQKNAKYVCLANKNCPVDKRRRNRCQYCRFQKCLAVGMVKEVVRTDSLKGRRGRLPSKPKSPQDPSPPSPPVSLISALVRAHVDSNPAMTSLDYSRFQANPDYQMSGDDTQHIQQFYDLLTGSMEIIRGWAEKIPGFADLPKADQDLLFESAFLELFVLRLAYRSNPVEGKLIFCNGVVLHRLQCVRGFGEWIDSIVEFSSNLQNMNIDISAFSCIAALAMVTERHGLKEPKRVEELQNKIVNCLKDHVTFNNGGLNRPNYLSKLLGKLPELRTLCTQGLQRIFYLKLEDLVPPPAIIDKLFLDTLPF

SMILES	EC50 [nM]
Cc1ccc(-c2cn3cc(-c4cccc(COc5ccc(Cl)cc5)c4)ccc3n2)cc1 [Compound 31, 6-[3-(4-Chlorophenoxymethyl)phenyl]-2-p-tolylimidazo[1,2-a]pyridine]	14
OCc1ccccc1-c1ccc2nc(-c3ccc(Cl)cc3)cn2c1 [Compound 40, {2-[2-(4-Chlorophenyl)imidazo[1,2-a]pyridin-6-yl]phenyl}methanol]	0.7
CC(C)(O)c1cccc(-c2ccc3nc(-c4ccc(Cl)cc4)cn3c2)c1 [Compound 39, 2-{3-[2-(4-Chlorophenyl)imidazo[1,2-a]pyridin-6-yl]phenyl}propan-2-ol]	0.7
COCCOCc1cccc(-c2ccc3nc(-c4ccc5ccccc5c4)cn3c2)c1 [Compound 17, 6-[3-(2-Methoxyethoxymethyl)phenyl]-2-(naphthalen-2-yl)imidazo[1,2-a]pyridine]	3.6
